Measured values as given in PMC8566257 (Plant Physiology, 2021).

What was measured:
Assay in all cases: pull-down of COI1-flag on MBP-JAZ, immunoblot
Type in all cases: binding
Details in all cases: 0.5 μM COR; inducer of complex (agonist)
[1] = target: T1, AtCOI1-flag/AtJAZ1-MBP with ASK1 (Arabidopsis thaliana, UniProt O04197+Q9LMA8)
T1 sequence (O04197 1-592): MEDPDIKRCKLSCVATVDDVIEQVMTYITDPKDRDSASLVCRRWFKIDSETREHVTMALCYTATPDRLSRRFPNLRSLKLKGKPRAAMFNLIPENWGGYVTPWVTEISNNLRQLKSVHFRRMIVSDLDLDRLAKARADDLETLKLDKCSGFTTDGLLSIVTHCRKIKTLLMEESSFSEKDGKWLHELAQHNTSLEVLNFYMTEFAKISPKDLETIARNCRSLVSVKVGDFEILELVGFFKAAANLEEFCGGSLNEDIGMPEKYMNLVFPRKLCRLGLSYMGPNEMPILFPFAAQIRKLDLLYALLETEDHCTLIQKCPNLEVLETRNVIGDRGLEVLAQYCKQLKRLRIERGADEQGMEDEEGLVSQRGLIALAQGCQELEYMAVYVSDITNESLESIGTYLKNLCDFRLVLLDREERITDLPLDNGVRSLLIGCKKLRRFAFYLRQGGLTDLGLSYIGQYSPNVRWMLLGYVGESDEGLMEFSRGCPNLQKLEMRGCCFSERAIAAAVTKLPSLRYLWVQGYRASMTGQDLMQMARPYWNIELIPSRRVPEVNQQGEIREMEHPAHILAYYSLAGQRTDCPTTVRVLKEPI
T1 sequence (Q9LMA8 1-253): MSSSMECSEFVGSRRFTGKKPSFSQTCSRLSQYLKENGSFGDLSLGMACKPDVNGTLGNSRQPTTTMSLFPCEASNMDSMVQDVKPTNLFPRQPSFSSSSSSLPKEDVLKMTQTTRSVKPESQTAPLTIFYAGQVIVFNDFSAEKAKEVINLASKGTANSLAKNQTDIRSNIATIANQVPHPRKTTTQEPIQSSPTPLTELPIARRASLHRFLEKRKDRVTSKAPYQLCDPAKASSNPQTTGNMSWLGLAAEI
T1 sequence (Q39255 1-160 partner): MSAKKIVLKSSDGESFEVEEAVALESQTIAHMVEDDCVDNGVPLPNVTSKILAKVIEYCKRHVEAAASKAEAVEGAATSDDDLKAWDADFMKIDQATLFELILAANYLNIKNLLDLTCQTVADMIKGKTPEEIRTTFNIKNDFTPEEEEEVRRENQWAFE

[2] = target: T2, AtCOI1-flag/AtJAZ9-MBP with ASK1 (Arabidopsis thaliana, UniProt O04197+Q8W4J8)
T2 sequence (O04197 1-592): T1 sequence (O04197 1-592)
T2 sequence (Q8W4J8 1-267): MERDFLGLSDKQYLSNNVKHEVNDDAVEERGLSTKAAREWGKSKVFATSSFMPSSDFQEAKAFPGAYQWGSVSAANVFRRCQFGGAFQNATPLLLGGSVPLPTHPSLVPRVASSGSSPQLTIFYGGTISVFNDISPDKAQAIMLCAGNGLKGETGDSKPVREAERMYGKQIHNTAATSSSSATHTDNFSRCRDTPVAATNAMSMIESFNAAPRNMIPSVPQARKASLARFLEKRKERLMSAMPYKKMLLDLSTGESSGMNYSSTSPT
T2 sequence (Q39255 1-160 partner): T1 sequence (Q39255 1-160 partner)

[3] = target: T3, AtCOI1-flag/AtJAZ3-MBP with ASK1 (Arabidopsis thaliana, UniProt O04197+Q9LVI4)
T3 sequence (O04197 1-592): T1 sequence (O04197 1-592)
T3 sequence (Q9LVI4 1-352): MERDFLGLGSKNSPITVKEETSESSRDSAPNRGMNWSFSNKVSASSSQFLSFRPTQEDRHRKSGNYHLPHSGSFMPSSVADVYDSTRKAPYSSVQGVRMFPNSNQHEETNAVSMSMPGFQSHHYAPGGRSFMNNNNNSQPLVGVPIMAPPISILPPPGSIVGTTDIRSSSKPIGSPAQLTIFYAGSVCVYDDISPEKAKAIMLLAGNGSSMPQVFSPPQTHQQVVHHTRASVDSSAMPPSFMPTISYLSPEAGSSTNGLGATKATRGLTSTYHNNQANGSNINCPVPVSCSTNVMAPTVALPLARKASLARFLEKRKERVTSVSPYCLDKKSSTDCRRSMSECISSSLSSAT
T3 sequence (Q39255 1-160 partner): T1 sequence (Q39255 1-160 partner)

[4] = target: T4, AtCOI1-flag/AtJAZ2-MBP with ASK1 (Arabidopsis thaliana, UniProt O04197+Q9S7M2)
T4 sequence (O04197 1-592): T1 sequence (O04197 1-592)
T4 sequence (Q9S7M2 1-249): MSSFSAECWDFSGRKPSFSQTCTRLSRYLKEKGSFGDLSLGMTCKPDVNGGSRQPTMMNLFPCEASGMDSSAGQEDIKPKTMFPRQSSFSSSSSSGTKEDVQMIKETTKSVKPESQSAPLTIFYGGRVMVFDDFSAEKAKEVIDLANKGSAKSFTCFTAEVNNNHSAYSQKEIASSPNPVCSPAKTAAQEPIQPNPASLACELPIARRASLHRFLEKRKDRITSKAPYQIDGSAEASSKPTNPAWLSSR
T4 sequence (Q39255 1-160 partner): T1 sequence (Q39255 1-160 partner)

With `CC[C@H]1C=C(C(=O)N[C@@]2(C(=O)O)C[C@@H]2CC)[C@H]2CCC(=O)[C@H]2C1` [COR] the “pull-down of COI1-flag on MBP-JAZ, immunoblot” value (from here on “pull-down of COI1-flag”) [1] was “COR promotes the interaction between the purified COI1 and several recombinant JAZ-MBP proteins”, the “pull-down of COI1-flag” value [2] was “COR promotes the interaction between the purified COI1 and several recombinant JAZ-MBP proteins” and the “pull-down of COI1-flag” value [3] was “COR promotes the interaction between the purified COI1 and several recombinant JAZ-MBP proteins”. For the same compound, the “pull-down of COI1-flag” value [4] was “COR promotes the interaction between the purified COI1 and several recombinant JAZ-MBP proteins”.
